The values that follow come from patent US12655125B2 (SIRONAX LTD., priority 2020, dated 2026).

In the assay the test system is HT-29 cells. The assay is described as follows: HT29 Cells 0FBS Assay In Vitro (TNF-α/SMAC mimetic/zVAD-FMK induced necroptosis, CellTiter-Glo cell viability). The format is cell-based. The settings on record: Homo sapiens; HT-29 cells, FBS free medium, TNF-α (10 ng/ml), SMAC mimetic (6 uM), zVAD-FMK (10 μM), 20 hours; geometric mean EC50; read-out: Cell activity (EC50) of Compounds 117-281. The essentials:
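Viability was measured by ATP luminescence (CellTiter-Glo) after 20 h at 37° C of compound exposure in 10-point, 1:3 dilutions. Necroptosis in FBS-free HT-29 cultures was driven by a TNF-α (10 ng/ml), SMAC mimetic (6 μM) and zVAD-FMK (10 μM) cocktail. EC50 values are geometric means from duplicate curves.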
(ATP-based viability assays read luminescence as a measure of living cells.)
On to `Cc1nn(-c2cc(OC3CN(C(=O)N4N=CC[C@H]4c4cc(F)cc(F)c4)C3)c(F)cn2)cc1C(N)=O` [compound 272, (S)-1-(4-((1-(5-(3,5-difluorophenyl)-4,5-dihydro-1H-pyrazole-1-carbonyl)azetidin-3-yl)oxy)-5-fluoropyridin-2-yl)-3-methyl-11H-pyrazole-4-carboxamide], for which the EC50 (as a rule, the concentration that produces a half-maximal response) lay in the range of 0.0001 to 0.1 µM.

With `Cc1c(C(N)=O)cnn1-c1cc(OC2CN(C(=O)N3N=CC[C@H]3c3cc(F)cc(F)c3)C2)c(F)cn1` [compound 273, (S)-1-(4-((1-(5-(3,5-difluorophenyl)-4,5-dihydro-1H-pyrazole-1-carbonyl)azetidin-3-yl)oxy)-5-fluoropyridin-2-yl)-5-methyl-1H-pyrazole-4-carboxamide], the EC50 fell in the range of 0.0001 to 0.1 µM.

Take `Cc1nn(-c2cc(OC3CN(C(=O)N4N=CC[C@H]4c4cc(F)cc(F)c4)C3)c(F)cn2)c(C)c1CN1CCCC1=O` [compound 274, (S)-1-((1-(4-((1-(5-(3,5-difluorophenyl)-4,5-dihydro-1H-pyrazole-1-carbonyl)azetidin-3-yl)oxy)-5-fluoropyridin-2-yl)-3,5-dimethyl-11H-pyrazol-4-yl)methyl)pyrrolidin-2-one]: the EC50 fell in the range of 0.0001 to 0.1 µM.

As to `Cc1nn(-c2ccc(F)c(OC3CN(C(=O)N4N=CC[C@H]4c4cc(F)cc(F)c4)C3)n2)c(C)c1C(N)=O` [compound 275], the EC50 was 0.0001 to 0.1 µM.

For the compound `Cc1nn(-c2ncc(F)c(OC3CN(C(=O)N4N=CC[C@H]4c4cc(F)cc(F)c4)C3)n2)c(C)c1C(N)=O` [compound 276, (S)-1-(4-((1-(5-(3,5-difluorophenyl)-4,5-dihydro-1H-pyrazole-1-carbonyl)azetidin-3-yl)oxy)-5-fluoropyrimidin-2-yl)-3,5-dimethyl-1H-pyrazole-4-carboxamide], the EC50 was in the range of 0.0001 to 0.1 µM.

As for `[2H]C1(c2cc(F)cc(F)c2)CC=NN1C(=O)N1CC(Oc2cc(-n3nc(C)c(C(N)=O)c3C)ncc2F)C1` (stereo not shown) [compound 277, 1-(4-((1-(5-(3,5-difluorophenyl)-4,5-dihydro-1H-pyrazole-1-carbonyl-5-d)azetidin-3-yl)oxy)-5-fluoropyridin-2-yl)-3,5-dimethyl-1H-pyrazole-4-carboxamide], the EC50 lay within 0.0001 to 0.1 µM.

On to `Cc1nn(-c2cc(OC3CN(C(=O)N4N=CC[C@H]4c4cc(F)cc(F)c4)C3)c(F)cn2)c(C)c1CC(=O)O` [compound 278, (S)-2-(1-(4-((1-(5-(3,5-difluorophenyl)-4,5-dihydro-1H-pyrazole-1-carbonyl)azetidin-3-yl)oxy)-5-fluoropyridin-2-yl)-3,5-dimethyl-1H-pyrazol-4-yl)acetic acid], for which the EC50 lay within 0.1 to 1 µM.

Take `Cc1nn(-c2cc(OC3CN(C(=O)N4N=CC[C@H]4c4cc(F)cc(F)c4)C3)c(F)cn2)c(C)c1C(C)(C)C(=O)O` [compound 279, (S)-2-(1-(4-((1-(5-(3,5-difluorophenyl)-4,5-dihydro-1H-pyrazole-1-carbonyl)azetidin-3-yl)oxy)-5-fluoropyridin-2-yl)-3,5-dimethyl-1H-pyrazol-4-yl)-2-methylpropanoic acid]: the EC50 lay in the range of 0.1 to 1 µM.

`Cc1nn(-c2cc(OC3CN(C(=O)N4N=CC[C@H]4c4cc(F)cc(F)c4)C3)c(F)cn2)c(C)c1C(C)(C)C(N)=O` [compound 280, (S)-2-(1-(4-((1-(5-(3,5-difluorophenyl)-4,5-dihydro-1H-pyrazole-1-carbonyl)azetidin-3-yl)oxy)-5-fluoropyridin-2-yl)-3,5-dimethyl-1H-pyrazol-4-yl)-2-methylpropanamide]: the EC50 lay within 0.0001 to 0.1 µM.

`CCc1nn(-c2cc(OC3CN(C(=O)N4N=CC[C@H]4c4cc(F)cc(F)c4)C3)c(F)cn2)c(C)c1C(N)=O` [compound 281, (S)-1-(4-((1-(5-(3,5-difluorophenyl)-4,5-dihydro-1H-pyrazole-1-carbonyl)azetidin-3-yl)oxy)-5-fluoropyridin-2-yl)-3-ethyl-5-methyl-1H-pyrazole-4-carboxamide]: the EC50 lay in the range of 0.0001 to 0.1 µM.
